# Results from patent US6395771B1, “Paclitaxel derivatives for the treatment of cancer” (Dabur Research Foundation, priority 2000, dated 2002).
# Experiments:
# [1] = tested on: cervical cancer cells (SiHa); assay: MTT cytotoxicity assay, cervical cancer cells; assay type: cell-based; set-up: key: —: Not active; =PT: Activity equivalent to Paclitaxel; <PT: Activity less than Paclitaxel; conditions: 24 to 96 hours, potency over paclitaxel
# Protocol: (§1) In vitro cytotoxic activity of novel paclitaxel derivatives was determined by performing the MTT cytotoxicity assay (Mosmann T., J Immunological Methods, 65:55; 1983). Briefly, the cultured tumor cells were separately seeded in a 96-well culture plate and co-incubated with paclitaxel or its derivatives dissolved in methanol, dimethyl formamide, dimethyl sulfoxide or isopropyl alcohol with relevant controls at 37° C. in a CO2 incubator. After 24 to 96 hours, the assay was terminated and percent cyotoxicities calculated.
# lung cancer cells (L132) = assay: MTT cytotoxicity assay, lung cancer cells; assay type: cell-based; set-up: key: —: Not active; =PT: Activity equivalent to Paclitaxel; <PT: Activity less than Paclitaxel; conditions: 24 to 96 hours, potency over paclitaxel
# Protocol: as §1
# leukemia cells (MOLT-4) = assay: MTT cytotoxicity assay, leukemia cells; assay type: cell-based; set-up: key: —: Not active; =PT: Activity equivalent to Paclitaxel; <PT: Activity less than Paclitaxel; conditions: MOLT-4 leukemia cells, 24 to 96 hours, potency over paclitaxel
# Protocol: as §1
# [2] = tested on: breast cancer cells (HBL100); assay: MTT cytotoxicity assay, breast cancer cells; assay type: cell-based; set-up: key: —: Not active; =PT: Activity equivalent to Paclitaxel; <PT: Activity less than Paclitaxel; conditions: 24 to 96 hours, potency over paclitaxel
# Protocol: as §1
# [3] = tested on: ovarian cancer cells (PA-1); assay: MTT cytotoxicity assay, ovarian cancer cells; assay type: cell-based; set-up: key: —: Not active; =PT: Activity equivalent to Paclitaxel; <PT: Activity less than Paclitaxel; conditions: PA-1 ovarian cancer cells, 24 to 96 hours, potency over paclitaxel
# Protocol: as §1
# mice = conditions: cited from earlier work
Structure (SMILES),"Potency with respect to paclitaxel, SiHa [1]","Potency with respect to paclitaxel, L132 (lung cancer cells (L132))","Potency with respect to paclitaxel, MOLT-4 (leukemia cells (MOLT-4))","Potency with respect to paclitaxel, HBL100 [2]","Potency with respect to paclitaxel, PA-1 [3]",toxic dose (mice; administered in the Cremophor vehicle) [mg/kg],"Maximum Tolerated Dose (MTD) (mice; mice, ip administration) [mg/kg]"
CC(=O)OC1C(=O)C2(C)C(O)CC3OCC3(OC(C)=O)C2C(OC(=O)c2ccccc2)C2(O)CC(OC(=O)C(OC(=O)CC(C)(C)C(=O)O)C(NC(=O)c3ccccc3)c3ccccc3)C(C)=C1C2(C)C (stereo not drawn) [AV-82B],>25.0,—,—,>170,—,,
"CC(=O)O[C@H]1C(=O)[C@@]2(C)[C@H]([C@H](OC(=O)c3ccccc3)[C@]3(O)C[C@H](OC(=O)[C@H](O)[C@@H](NC(=O)c4ccccc4)c4ccccc4)C(C)=C1C3(C)C)[C@]1(OC(C)=O)CO[C@@H]1C[C@@H]2O [paclitaxel, Paclitaxel]",,,,,,> 30,50
CC(=O)OC1C(=O)C2(C)C(O)CC3OCC3(OC(C)=O)C2C(OC(=O)c2ccccc2)C2(O)CC(OC(=O)C(OC(=O)CNC(=O)CNC(=O)OC(C)(C)C)C(NC(=O)c3ccccc3)c3ccccc3)C(C)=C1C2(C)C (stereo not drawn) [AV-4S],—,56.3,13.2,3.3,9.5,,
CC(=O)OC1C(=O)C2(C)C(O)CC3OCC3(OC(C)=O)C2C(OC(=O)c2ccccc2)C2(O)CC(OC(=O)C(OC(=O)c3cccc(F)c3F)C(NC(=O)c3ccccc3)c3ccccc3)C(C)=C1C2(C)C (stereo not drawn) [AV-105S],1.4,—,—,3.8,—,,
CC(=O)OC1C(=O)C2(C)C(O)CC3OCC3(OC(C)=O)C2C(OC(=O)c2ccccc2)C2(O)CC(OC(=O)C(OC(=O)c3cccc(C(F)(F)F)c3)C(NC(=O)c3ccccc3)c3ccccc3)C(C)=C1C2(C)C (stereo not drawn) [AV-86B],2.5,,—,<PT,—,,
CC(=O)OC(C)C(=O)OC1CC2OCC2(OC(C)=O)C2C(OC(=O)c3ccccc3)C3(O)CC(OC(=O)C(OC(=O)OCC(Cl)(Cl)Cl)C(NC(=O)c4ccccc4)c4ccccc4)C(C)=C(C(OC(C)=O)C(=O)C12C)C3(C)C (stereo not drawn) [AV-126S],—,—,—,—,=PT,,
CC(=O)OC1C(=O)C2(C)C(O)CC3OCC3(OC(C)=O)C2C(OC(=O)c2ccccc2)C2(O)CC(OC(=O)C(OC(=O)C(OC(C)=O)c3ccccc3)C(NC(=O)c3ccccc3)c3ccccc3)C(C)=C1C2(C)C (stereo not drawn) [AV-125S],—,—,—,—,=PT,,
CC(=O)OC1C(=O)C2(C)C(O)CC3OCC3(OC(C)=O)C2C(OC(=O)c2ccccc2)C2(O)CC(OC(=O)C(OC(=O)c3ccc(F)cc3F)C(NC(=O)c3ccccc3)c3ccccc3)C(C)=C1C2(C)C (stereo not drawn) [AV-103S],1.4,—,—,,—,,
CC(=O)CC(=O)OC(C(=O)OC1CC2(O)C(OC(=O)c3ccccc3)C3C4(OC(C)=O)COC4CC(O)C3(C)C(=O)C(OC(C)=O)C(=C1C)C2(C)C)C(NC(=O)c1ccccc1)c1ccccc1 (stereo not drawn) [AV-147A],—,—,—,—,=PT,,
CC(=O)OC1C(=O)C2(C)C(O)CC3OCC3(OC(C)=O)C2C(OC(=O)c2ccccc2)C2(O)CC(OC(=O)C(OC(=O)CSc3ccccc3)C(NC(=O)c3ccccc3)c3ccccc3)C(C)=C1C2(C)C (stereo not drawn) [AV-150S],—,—,—,—,=PT,,
